For one assay, the target named is T1, CRTH2 receptor (Homo sapiens, UniProt Q9Y5Y4).
T1 construct: expressed in transfected cells; host or cells: Chinese Hamster Ovary (CHO) cells, membranes
T1 sequence (Q9Y5Y4 1-395): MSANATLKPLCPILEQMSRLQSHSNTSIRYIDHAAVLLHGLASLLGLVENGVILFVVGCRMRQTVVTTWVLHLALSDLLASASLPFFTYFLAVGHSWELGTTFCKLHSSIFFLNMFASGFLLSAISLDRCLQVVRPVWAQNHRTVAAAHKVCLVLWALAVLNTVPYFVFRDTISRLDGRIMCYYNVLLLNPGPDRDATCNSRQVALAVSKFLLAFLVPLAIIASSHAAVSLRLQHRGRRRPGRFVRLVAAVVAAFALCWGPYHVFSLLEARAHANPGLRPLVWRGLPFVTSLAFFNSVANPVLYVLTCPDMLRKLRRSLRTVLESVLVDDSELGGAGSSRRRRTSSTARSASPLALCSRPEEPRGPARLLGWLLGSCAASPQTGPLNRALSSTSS
As to the kind of experiment: Radioligand binding assay ([3H]PGD2) on CHO/CRTH2 cell membranes. As to conditions: [3H]PGD2 binding. On the procedure:
Chinese Hamster Ovary cells were transfected with CRTH2 or DP receptors (CHO/CRTH2 and CHO/DP) and were maintained in culture in a humidified atmosphere at 37° C. (5% CO2) in Minimum Essential Medium (MEM) supplemented with 10% foetal bovine serum, 2 mM glutamine, and 1 mg ml^−1 active G418. The cells were passaged every 2-3 days. For radioligand binding assay, cells were prepared in triple-layer flasks or in 175 cm^2 square flasks (for membrane preparation).
Membranes were prepared either from CHO/CRTH2 and CHO/DP cells, or from platelets (as a source of TP receptors). CHO cells grown to confluency were washed with PBS and detached using a Versene solution (15 ml per flask). When the cells were grown in 175 cm^2 square flask, they were collected by scrapping in PBS. The cell suspensions were centrifuged (1,700 rpm, 10 min, 4° C.) and resuspended in 15 ml of buffer (1× HBSS, supplemented with 10 mM HEPES, pH 7.3). Cell suspensions were then homogenised using an Ultra Turrax at setting 4-6 for 20 s. The homogenate was centrifuged at 1,700 rpm for 10 min and the supernatant was collected and centrifuged at 20,000 rpm for 1 h at 4° C. The resulting pellet was resuspended in buffer and stored at −80° C. in aliquots of 200-500 μl. The protein concentration was determined by the method of Bradford (1976), using bovine serum albumin as standard. The platelets were washed by centrifugation at 600×g for 10 min and resuspended in ice-cold assay buffer (10 mM Tris-HCl, pH 7.4, 5 mM Glucose, 120 mM NaCl, 10 μM indomethacin) and directly centrifuged at 20,000 rpm for 30 min at 4° C. The resulting pellet was treated as described above.
[^3H]PGD2 (160 Ci/mmol) binding experiments were performed on membranes prepared as described above. Assays were performed in a final volume of 100 μl of buffer (1× HBSS/HEPES 10 mM, pH 7.3). Cell membranes (15 μg) were preincubated at room temperature with varying concentration of competing ligand for 15 min. [^3H]PGD2 was then added and the incubation continued for a further one hour at room temperature. The reaction was terminated by the addition of 200 μl ice-cold assay buffer to each well, followed by rapid filtration through Whatman GF/B glass fibre filters using a Unifilter Cell harvester (PerkinElmer Life Sciences) and six washes of 300 μl of ice-cold buffer. The Unifilter plates were dried at room temperature for at least 1 h and the radioactivity retained on the filters was determined on a Beta Trilux counter (PerkinElmer Life Sciences), following addition of 40 μl of Optiphase Hi-Safe 3 (Wallac) liquid scintillation. Non specific binding was defined in the presence of 10 μM unlabelled PGD2. Assays were performed in duplicate.

The subject of assay [1] is PGD2-induced eosinophil shape change. As to the kind of experiment: Human whole blood eosinophil shape change assay (PGD2-induced). It counts as cell-based. As to conditions: 10 nM PGD2, read-out: IC50 for the effect on 10 nM PGD2-induced eosinophil shape change in whole blood. The method, then:
Compounds 1-6 were assayed for their effect on PGD2 induced eosinophil shape change.
Compounds (1 μl, 200× final concentration) were added directly to 200 μl whole blood, mixed well and incubated for 15 min, 37° C., 5% CO2. After this time, cell shape was fixed by addition of 300 μl Cytofix™ buffer (BD Biosciences), 15 min on ice. 10 ml RBC lysis buffer was added to the fixed cells, incubated 5 min, at room temperature and centrifuged, 300×g for 5 min. Supernatant (containing lysed red cells) was removed and the lysis step was repeated. Leukocytes were resuspended in 250 μl RPMI/10% FCS and shape change analysed by FACS. Eosinophils were gated out based on their autofluorescence and 2000 eosinophil events were counted per sample. Data were analysed in triplicate.

In the case of `Cc1c(Cc2ccc(S(=O)(=O)Cc3ccc(Cl)cc3)cc2)c2cc(F)ccc2n1CC(=O)O` [Compound 2, 2-(3-(4-(4-Chlorobenzylsulfonyl)benzyl)-5-fluoro-2-methyl-1H-indol-1-yl)acetic acid], the inhibitory constant (Ki) on CRTH2 receptor worked out at 5 nM.

Turning to `Cc1c(Cc2cccc(S(=O)(=O)Cc3ccc(F)cc3)c2)c2cc(F)ccc2n1CC(=O)O` [Compound 4, 2-(5-Fluoro-3-(3-(4-fluorobenzylsulfonyl)benzyl)-2-methyl-1H-indol-1-yl)acetic acid], the affinity on CRTH2 receptor, expressed as Ki, was 1 nM.

`Cc1c(Cc2ccccc2S(=O)(=O)Cc2ccccc2)c2cc(F)ccc2n1CC(=O)O` [Compound 5, 2-(3-(2-(Benzylsulfonyl)benzyl)-5-fluoro-2-methyl-1H-indol-1-yl)acetic acid]: the affinity on CRTH2 receptor, expressed as Ki, was 3 nM. The IC50 in assay [1] came to 12 nM.

Turning to `Cc1c(Cc2ccc(S(=O)(=O)Cc3ccccc3)cc2)c2cc(F)ccc2n1CC(=O)O` [Compound 1, 2-(3-(4-(Benzylsulfonyl)benzyl)-5-fluoro-2-methyl-1H-indol-1-yl)acetic acid], at CRTH2 receptor, affinity was put at a Ki of 1 nM. The IC50 in assay [1] amounted to 1 nM.

On CRTH2 receptor, `Cc1c(Cc2cccc(S(=O)(=O)Cc3ccccc3)c2)c2cc(F)ccc2n1CC(=O)O` [Compound 3, 2-(3-(3-(Benzylsulfonyl)benzyl)-5-fluoro-2-methyl-1H-indol-1-yl)acetic acid] yielded a Ki of 3 nM. Moreover, in assay [1], the IC50 is 77 nM.

As for `Cc1c(Cc2ccc(S(=O)(=O)Cc3ccc(F)cc3)cc2)c2cc(F)ccc2n1CC(=O)O` [Compound 6, 2-(3-(4-(4-Fluorobenzylsulfonyl)benzyl)-5-fluoro-2-methyl-1H-indol-1-yl)acetic acid], the inhibition constant (Ki) at CRTH2 receptor came out at 3 nM. In addition, the IC50 in assay [1] was 3 nM.

In general, Ki refers to a measure of affinity in units of concentration, obtained from inhibition or displacement. Read a high Ki as weaker binding. As a reminder, the IC50 is the midpoint of a concentration-inhibition curve.

Values taken from patent US20100022613A1, “Compounds Having CRTH2 Antagonist Activity” (Oxagen Limited, priority 2008, published 2010).
